Data published in US20080242663A1, “NOVEL PYRIMIDINE DERIVATIVES 698” (ASTRAZENECA AB, priority 2007, published 2008).

Columns and labels:
recombinant EphB4 = target: T1, recombinant EphB4 (Homo sapiens, UniProt P54760); assay: In vitro EphB4 enzyme assay (Alphascreen); type: biochemical
T1 construct: amino acids 563-987; Swiss-Prot Acc; No. P54760; purchased ProQinase GmbH 0178-0000-3
T1 sequence (P54760 563-987): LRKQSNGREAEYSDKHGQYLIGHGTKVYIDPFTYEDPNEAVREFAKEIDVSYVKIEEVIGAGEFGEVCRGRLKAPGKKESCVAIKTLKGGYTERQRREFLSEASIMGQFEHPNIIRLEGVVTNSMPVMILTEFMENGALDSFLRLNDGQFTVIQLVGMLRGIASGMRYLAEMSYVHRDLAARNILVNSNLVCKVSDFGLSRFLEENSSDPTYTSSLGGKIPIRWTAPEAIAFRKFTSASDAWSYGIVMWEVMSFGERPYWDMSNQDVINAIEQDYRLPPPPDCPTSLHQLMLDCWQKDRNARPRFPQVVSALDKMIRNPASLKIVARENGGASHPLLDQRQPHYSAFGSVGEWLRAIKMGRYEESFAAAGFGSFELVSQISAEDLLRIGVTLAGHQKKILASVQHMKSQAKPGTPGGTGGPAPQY
How it was run: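 Recombinant EphB4 phosphorylated biotin-poly-GAT with Mg-ATP for 1 hr at room temperature; EDTA stop, then Alphascreen donor/acceptor (anti-phosphotyrosine) beads for 20 hrs in the dark. After minimum subtraction, signal plotted against compound concentration to derive IC50.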

human EphB4 = target: T2, human EphB4 (Homo sapiens, UniProt P54760); assay: In vitro EphB4 cell assay (EphB4 phosphorylation in EphB4-CHO cells, sandwich ELISA); type: cell-based; conditions: Assay B
T2 construct: to generate full-length EphB4 containing a Myc-His tag at the C-terminus; expressed in transfected cells; EphB4-CHO)
T2 sequence (P54760 16-987): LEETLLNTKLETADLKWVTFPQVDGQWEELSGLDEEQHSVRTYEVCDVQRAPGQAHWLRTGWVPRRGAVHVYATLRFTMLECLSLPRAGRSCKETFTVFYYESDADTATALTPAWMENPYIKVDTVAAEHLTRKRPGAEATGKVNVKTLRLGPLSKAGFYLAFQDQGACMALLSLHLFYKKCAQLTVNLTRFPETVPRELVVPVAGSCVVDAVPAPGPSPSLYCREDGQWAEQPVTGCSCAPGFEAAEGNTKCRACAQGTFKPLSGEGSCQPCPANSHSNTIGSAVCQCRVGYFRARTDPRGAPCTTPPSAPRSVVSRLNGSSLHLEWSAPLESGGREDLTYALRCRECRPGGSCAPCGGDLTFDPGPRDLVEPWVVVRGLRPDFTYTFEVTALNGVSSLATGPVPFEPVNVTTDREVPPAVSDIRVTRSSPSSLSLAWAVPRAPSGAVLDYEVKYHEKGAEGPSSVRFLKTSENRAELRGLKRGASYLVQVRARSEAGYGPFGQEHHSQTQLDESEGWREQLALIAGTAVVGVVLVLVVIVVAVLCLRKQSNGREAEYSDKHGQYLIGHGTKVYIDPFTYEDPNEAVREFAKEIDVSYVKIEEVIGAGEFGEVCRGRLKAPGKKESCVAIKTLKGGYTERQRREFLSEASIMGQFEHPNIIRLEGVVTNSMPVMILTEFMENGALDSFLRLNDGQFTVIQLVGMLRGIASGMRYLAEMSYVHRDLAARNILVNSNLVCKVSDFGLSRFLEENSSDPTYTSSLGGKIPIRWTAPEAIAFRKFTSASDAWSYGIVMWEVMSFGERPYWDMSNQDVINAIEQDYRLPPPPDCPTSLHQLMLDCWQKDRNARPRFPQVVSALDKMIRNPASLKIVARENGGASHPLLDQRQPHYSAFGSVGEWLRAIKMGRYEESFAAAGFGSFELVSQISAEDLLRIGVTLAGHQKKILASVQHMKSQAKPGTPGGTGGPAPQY
Description: The assay identifies inhibitors of cellular EphB4 by measuring a decrease in phosphorylation of EphB4 following treatment of cells with compound. The endpoint assay used a sandwich ELISA to detect EphB4 phosphorylation status. Briefly, Myc-tagged EphB4 from treated cell lysate was captured on the ELISA plate via an anti-c-Myc antibody. The phosphorylation status of captured EphB4 was then measured using a generic phosphotyrosine antibody conjugated to HRP via a colourimetric output catalysed by HRP, with level of EphB4 phosphorylation directly proportional to the colour intensity. Absorbance was measured spectrophotometrically at 450 nm.
Full length human EphB4 (Swiss-Prot Acc. No. P54760) was cloned using standard techniques from cDNA prepared from HUVEC using RT-PCR. The cDNA fragment was then sub-cloned into a pcDNA3.1 expression vector containing a Myc-His epitope tag to generate full-length EphB4 containing a Myc-His tag at the C-terminus (Invitrogen Ltd. Paisley, UK). […] CHO-K1 cells were engineered to stably express the EphB4-Myc-His construct using standard stable transfection techniques, to generate cells hereafter termed EphB4-CHO.
On day 2, the cells were incubated overnight in 90 μl/well of media containing 0.1% Hyclone stripped-serum (Fisher Scientific UK, Catalogue No. SH30068.02). […] A 10 μl aliquot of each compound dilution was transferred to the cell plates in duplicate wells, and the cells incubated for 1 hr at 37° C.
Following compound treatment, cells were stimulated with clustered ephrin-B2 at a final concentration of 1 μg/ml for 20 minutes at 37° C. to induce EphB4 phosphorylation. Following stimulation, the medium was removed and the cells lysed in 100 μl/well of lysis buffer (25 mM Tris HCl, 3 mM EDTA, 3 mM EGTA, 50 mM NaF, 2 mM orthovanadate, 0.27M Sucrose, 10 mM β-glycerophosphate, 5 mM sodium pyrophosphate, 2% Triton X-100, pH 7.4).
Plates were washed twice with PBS/0.05% Tween-20 and incubated with 100 μl/well cell lysate overnight at 4° C. […] ELISA plates were washed four times with PBS/0.05% Tween-20 and developed with 100 μl/well TMB substrate (Sigma-Aldrich Company Ltd, Catalogue No. T0440). The reaction was stopped after 15 minutes with the addition of 25 μl/well 2M sulphuric acid. The absorbances were determined at 450 nm using the Tecan SpectraFluor Plus. The minimum value was subtracted from all values, and the signal plotted against compound concentration to generate IC50 data.

[1] = system: Human Colorectal cancer cells (HT29); assay: In vivo tumour explant model; parameters: species or system nude male mice (nu/nu:Alpk); conditions: HT29 tumours in nude mice, 100 mg/kg b.i.d. orally, 16 consecutive days
Description: Human Colorectal cancer cells (HT29 5×10^6 (ATCC HTB-38)) were implanted subcutaneously on to the left flank of nude male mice (nu/nu:Alpk). Actively growing tumours approx 0.2-0.3 cm^3 were selected and randomised. […] Tumours were measured twice weekly and volumes (cm^3) calculated (π/6×(length×width×width)/1000). On the final day of the dosing the tumours were measured, percent growth inhibition was then calculated compared to the control ((([…]-1))*100), where GMDV is the geometric delta volume of either treated (T) or control (C), and a T-Test was performed to establish significance.

IC50 (recombinant EphB4) [nM]	IC50 (human EphB4) [nM]	Compound	tumour volume [1]
2180	74	CN(c1ccnc(Nc2cc(F)cc(N3CCOCC3)c2)n1)c1ccc(F)c(Cl)c1F [Example 2.2, N′-(3-chloro-2,4-difluoro-phenyl)-N-(3-fluoro-5-morpholin-4-yl-phenyl)-N′-methyl-pyrimidine-2,4-diamine]	
1270	11	CN(c1ccnc(Nc2cc(N3CCCOCC3)cc(N3CCOCC3)c2)n1)c1ccc(F)c(Cl)c1F [Example 2.10, N′-(3-chloro-2,4-difluoro-phenyl)-N′-methyl-N-[3-morpholin-4-yl-5-(1,4-oxazepan-4-yl)phenyl]pyrimidine-2,4-diamine]	
1110	17	CC(C)OCc1cc(Nc2nccc(N(C)c3ccc(F)c(Cl)c3F)n2)cc(N2CCOCC2)c1 [Example 2.15, N′-(3-chloro-2,4-difluoro-phenyl)-N′-methyl-N-[3-morpholin-4-yl-5-(propan-2-yloxymethyl)phenyl] pyrimidine-2,4-diamine]	
28.9	21	CN(c1ccnc(Nc2cc(CN3CCCC3)cc(N3CCOCC3)c2)n1)c1ccc(F)c(Cl)c1F [Example 2.17, N′-(3-chloro-2,4-difluoro-phenyl)-N′-methyl-N-[3-morpholin-4-yl-5-(pyrrolidin-1-ylmethyl)phenyl]py-rimidine-2,4-diamine]	
63.8	1710	CN1CCN(c2cccc(Nc3nccc(N(C)c4ccc(F)c(Cl)c4F)n3)c2)CC1 [Example 4, N′-(3-chloro-2,4-difluoro-phenyl)-N′-methyl-N-[3-(4-methylpiperazin-1-yl)phenyl]pyrimidine-2,4-diamine]	
		Cc1ccc(CO)cc1N(C)c1ccnc(Nc2cc(N3CCOCC3)cc(N3CCOCC3)c2)n1 [[3-[[2-[(3,5-dimorpholin-4-ylphenyl)amino]pyrimidin-4-yl]-methyl-amino]-4-methyl-phenyl]methanol]	reducing tumour volume
